Measured values from patent US9963496B2, “Stable glucagon analogues and use for treatment of hypoglycaemia” (Novo Nordisk A/S, priority 2014, dated 2018).
*1 amine or outer side, *2 acyl side, *3 side chain or, on linkers, in order; H or OH if unused. Where a SMILES comes first, the peptide text is derived from it. Side-chain parts run from the residue outwards. [ ]: non-standard residue; d: D form. The star is where a group is joined. γGlu = O=C(O)[C@H](CCC(=O)[*:2])N[*:1]; Desaminohistidyl = O=C(CCc1c[nH]cn1)*; Aib = CC(C)(N)C(=O)O

Experiments:
human glucagon receptor = molecular target: T1, human glucagon receptor (Homo sapiens, UniProt P47871); experiment: Assay (I)(b): glucagon receptor activation, CRE luciferase reporter gene assay in BHK cells; type: cell-based; details: BHK cells expressing human glucagon receptor and CRE luciferase, 3 h incubation; read-out: EC50 hGlucagonR
T1 construct: expressed in transfected cells; host or cells: BHK cells, clone BHK hGCGR A3*25; isolated membranes
Protocol: The purpose of this assay is to test the activity, or potency, of the derivatives of the invention, in vitro. The in vitro potency is the measure of human GLP-1 receptor and/or glucagon receptor activation, respectively, in a whole cell assay.
In vitro potency was determined by measuring the response of human GLP-1 or glucagon receptor, respectively, in a reporter gene assay. The assay was performed in a stably transfected BHK cell line that expressed either the human GLP-1 receptor or the human glucagon receptor and contained the DNA for the cAMP response element (CRE) coupled to a promoter and the gene for firefly luciferase (CRE luciferase). […] When assay incubation was completed, the luciferase substrate (luciferin) was added and the enzyme converted luciferin to oxyluciferin and produced bioluminescence. The luminescence was measured as the readout for the assay.
(b) Glucagon Receptor Activation
The cells used in this assay (clone pLJ6′-4-25) were BHK cells with BHK570 as a parent cell line expressing the CRE luciferase gene (clone BHK/KZ10-20-48) and were established by further transfection with the human glucagon receptor (clone pLJ6′ in pHZ-1 vector).
The cells were cultured at 5% CO2 in DMEM medium with 10% FBS, 1× GlutaMAX, 1 mg/mL G418, 240 nM MTX (methotrexate) and 1% pen/strep (penicillin/streptomycin). They were aliquoted and stored in liquid nitrogen. Before each assay, an aliquot was taken up and washed three times in PBS before being suspended at the desired concentration in assay buffer. For 96-well plates the suspension was made to give a final concentration of 5×10 EE3 cells/well.
Assay Medium consisted of DMEM w/o phenol red, 10 mM Hepes, lx GlutaMAX, 2% Ovalbumin and 0.2% Pluronic F-68.
Cell stocks were thawed in a 37° C. water bath. Cells were washed three times in PBS. The cells were counted and adjusted to 5×10 EE3 cells/50 μl (1×10 EE5 cells/mL) in Assay Medium. A 50 μl aliquot of cells was transferred to each well in the assay plate.
Stocks of the test compounds and reference compounds were diluted to a concentration of […] in Assay Medium. Compounds were diluted 10-fold to give the following concentrations: […], 2×10 EE-7 M, 2×10 EE-8 M; 2×10 EE-9 M, 2×10 EE-10 M, 2×10 EE-11 M, 2×10 EE-12 M and 2×10 EE-13 M. For each compound a blank assay buffer control was also included.
A 50 μl aliquot of compound or blank was transferred from the dilution plate to the assay plate. Compounds were tested at the following final concentrations: 1×10 EE-6 M, 1×10 EE-7 M, 1×10 EE-8 M; 1×10 EE-9 M, 1×10 EE-10 M, 1×10 EE-11 M and 1×10 EE-12 M and 1×10 EE-13 M.
The assay plate was incubated for 3 h in a 5% CO2 incubator at 37° C. The assay plate was removed from the incubator and allowed to stand at room temperature for 15 min. A 100 μl aliquot of steadylite plus reagent was added to each well of the assay plate (reagent is light sensitive). Each assay plate was covered with aluminum foil to protect it from light and shaken for 30 min at room temperature. Each assay plate was read in a Packard TopCount NXT instrument.
The data from the TopCount instrument was transferred to GraphPad Prism software. The software performed a non-linear regression (log(agonist) vs response-Variable slope (four parameter)). EC50 values were calculated by the software and reported in pM.

physchem = type: physicochemical; details: pH 7.5
Excerpt: Assay (III): ThT Fibrillation Assay for the Assessment of Physical Stability of Peptide Compositions The purpose of this assay is to assess the physical stability of the glucagon derivatives of the invention in aqueous solutions. Low physical stability of a peptide may lead to amyloid fibril formation, which is observed as well-ordered, thread-like macromolecular structures in the sample, which eventually may lead to gel formation. This has traditionally been measured by visual inspection of the sample. However, that kind of measurement is very cumbersome and depending on the observer. Therefore, the application of a small molecule indicator probe is much more advantageous. Thioflavin T (ThT) is such a probe and has a distinct fluorescence signature when binding to fibrils [Naiki et al. (1989) Anal. Biochem. 177, 244-249; LeVine (1999) Methods. Enzymol. 309, 274-284]. Here, as depicted in FIG. 1, F is the ThT fluorescence at the time t. The constant t0 is the time needed to reach 50% of maximum fluorescence. The two important parameters describing fibril formation are the lag-time calculated by t0−2τ and the apparent rate constant kapp 1/τ. Samples were prepared freshly before each assay. Each sample composition is described in the legends. The pH of the sample was adjusted to the desired value using appropriate amounts of concentrated NaOH and HCl. Thioflavin T was added to the samples from a stock solution in H2O to a final concentration of 1 μM. Sample aliquots of 200 μl (250 μM of the glucagon derivative/analogue in 10 mM HEPES buffer, pH 7.5) were placed in a 96 well microtiter plate (Packard OptiPlate™-96, white polystyrene). Usually, four or eight replica of each sample (corresponding to one test condition) was placed in one column of wells. The plate was sealed with Scotch Pad (Qiagen). Incubation at given temperature, shaking and measurement of the ThT fluorescence emission were done in a Fluoroskan Ascent FL fluorescence platereader (Thermo Labsystems). The plate was incubated 37° C. with orbital shaking adjusted to 960 rpm with an amplitude of 1 mm. Fluorescence measurement was done using excitation through a 444 nm filter and measurement of emission through a 485 nm filter. Each run was initiated by incubating the plate at the assay temperature for 10 min. The plate was measured every 20 minutes for a desired period of time. Between each measurement, the plate was shaken and heated as described. After completion of the ThT assay the four or eight replica of each sample was pooled and centrifuged at 20000 rpm for 30 minutes at 18° C. The supernatant was filtered through a 0.22 μm filter and an aliquot was transferred to a HPLC vial. The concentration of peptide in the initial sample and in the filtered supernatant was determined by reverse phase HPLC using an appropriate standard as reference. The percentage fraction the concentration of the filtered sample constituted of the initial sample concentration was reported as the recovery. The measurement points were saved in Microsoft Excel format for further processing and curve drawing and fitting was performed using GraphPad Prism. The background emission from ThT in the absence of fibrils was negligible. The data points were typically a mean of four or eight samples and shown with standard deviation error bars. Only data obtained in the same experiment (i.e. samples on the same plate) were presented in the same graph ensuring a relative measure of fibrillation between experiments. The data set may be fitted to Eq. (1).

T1 sequence (P47871 26-477): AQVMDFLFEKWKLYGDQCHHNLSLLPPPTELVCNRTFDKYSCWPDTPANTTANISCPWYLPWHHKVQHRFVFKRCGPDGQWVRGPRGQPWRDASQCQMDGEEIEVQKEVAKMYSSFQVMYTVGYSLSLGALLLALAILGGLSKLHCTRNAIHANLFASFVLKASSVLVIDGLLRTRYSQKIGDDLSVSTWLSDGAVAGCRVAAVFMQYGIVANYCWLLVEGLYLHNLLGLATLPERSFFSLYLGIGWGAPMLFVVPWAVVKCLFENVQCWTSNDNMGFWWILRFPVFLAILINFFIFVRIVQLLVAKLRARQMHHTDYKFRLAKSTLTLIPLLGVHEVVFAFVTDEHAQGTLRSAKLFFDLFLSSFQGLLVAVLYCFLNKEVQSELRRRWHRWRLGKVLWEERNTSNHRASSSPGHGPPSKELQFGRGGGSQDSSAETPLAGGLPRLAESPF

Structure (SMILES)	EC50 (human glucagon receptor) [pM]	recovery at 250 μM (physchem) [%]
CC(=O)N[C@@H](CCC(=O)N[C@@H](CCC(=O)N[C@@H](CCC(=O)N[C@@H](CCC(=O)NCCCC[C@H](NC(=O)[C@@H](NC(=O)[C@H](Cc1ccccc1)NC(=O)[C@H](CCC(=O)O)NC(=O)[C@H](CCC(N)=O)NC(=O)[C@H](C)NC(=O)[C@H](CCCNC(=N)N)NC(=O)[C@H](CCCNC(=N)N)NC(=O)[C@H](CO)NC(=O)[C@H](CCC(=O)O)NC(=O)[C@H](CC(C)C)NC(=O)[C@H](Cc1ccc(O)cc1)NC(=O)[C@H](CCCCN)NC(=O)[C@H](CO)NC(=O)[C@H](Cc1ccc(O)cc1)NC(=O)[C@H](CC(=O)O)NC(=O)[C@H](CO)NC(=O)[C@@H](NC(=O)[C@H](Cc1ccccc1)NC(=O)[C@@H](NC(=O)CNC(=O)[C@H](Cc1c[nH]cn1)NC(=O)C(C)(C)NC(=O)CCc1c[nH]cn1)[C@@H](C)O)[C@@H](C)O)C(C)C)C(=O)N[C@@H](Cc1c[nH]c2ccccc12)C(=O)N[C@@H](CC(C)C)C(=O)N[C@@H](CC(C)C)C(=O)N[C@@H](CO)C(=O)N[C@H](C(=O)O)[C@@H](C)O)C(=O)O)C(=O)O)C(=O)O)C(=O)O [Example 7, N^ϵ24-[(4S)-4-[[(4S)-4-[[(4S)-4-[[(4S)-4-acetamido-4-carboxybutanoyl]amino]-4-carboxybutanoyl]amino]-4-carboxybutanoyl]amino]-4-carboxybutanoyl]-[Imp1, Aib2, His3, Glu15, Glu21, Lys24, Leu27, Ser28]-Glucagon] (Desaminohistidyl-[Aib]HGTFTSDYSKYLESRRAQEFVK([γGlu-γGlu-γGlu-γGlu-Ac])WLLST-OH)	2	100
CC(=O)N[C@@H](CCC(=O)N[C@@H](CCC(=O)N[C@@H](CCC(=O)N[C@@H](CCC(=O)NCCCC[C@H](NC(=O)[C@@H](NC(=O)[C@H](Cc1ccccc1)NC(=O)[C@H](CCC(=O)O)NC(=O)[C@H](CCC(N)=O)NC(=O)[C@H](C)NC(=O)[C@H](CCCNC(=N)N)NC(=O)[C@H](CCCNC(=N)N)NC(=O)[C@H](CO)NC(=O)[C@H](CCC(=O)O)NC(=O)[C@H](CC(C)C)NC(=O)[C@H](Cc1ccc(O)cc1)NC(=O)[C@H](CCCCN)NC(=O)[C@H](CO)NC(=O)[C@H](Cc1ccc(O)cc1)NC(=O)[C@H](CC(=O)O)NC(=O)[C@H](CO)NC(=O)[C@@H](NC(=O)[C@H](Cc1ccccc1)NC(=O)[C@@H](NC(=O)CNC(=O)[C@H](Cc1c[nH]cn1)NC(=O)[C@H](CO)NC(=O)CCc1c[nH]cn1)[C@@H](C)O)[C@@H](C)O)C(C)C)C(=O)N[C@@H](Cc1c[nH]c2ccccc12)C(=O)N[C@@H](CC(C)C)C(=O)N[C@@H](CC(C)C)C(=O)N[C@@H](CCC(=O)O)C(=O)N[C@H](C(=O)O)[C@@H](C)O)C(=O)O)C(=O)O)C(=O)O)C(=O)O [Example 22, N^ϵ24-[(4S)-4-[[(4S)-4-[[(4S)-4-[[(4S)-4-acetamido-4-carboxybutanoyl]amino]-4-carboxybutanoyl]amino]-4-carboxybutanoyl]amino]-4-carboxybutanoyl]-[Imp1, His3, Glu15, Glu21, Lys24, Leu27, Glu28]-Glucagon] (Desaminohistidyl-SHGTFTSDYSKYLESRRAQEFVK([γGlu-γGlu-γGlu-γGlu-Ac])WLLET-OH)	17	100
CC(=O)N[C@@H](CCC(=O)N[C@@H](CCC(=O)N[C@@H](CCC(=O)N[C@@H](CCC(=O)NCCCC[C@H](NC(=O)[C@@H](NC(=O)[C@H](CO)NC(=O)[C@H](CC(C)C)NC(=O)[C@H](CC(C)C)NC(=O)[C@H](Cc1c[nH]c2ccccc12)NC(=O)[C@H](CCC(N)=O)NC(=O)[C@@H](NC(=O)[C@H](Cc1ccccc1)NC(=O)[C@H](CCC(=O)O)NC(=O)[C@H](CCC(N)=O)NC(=O)[C@H](C)NC(=O)[C@H](CCCNC(=N)N)NC(=O)[C@H](CCCNC(=N)N)NC(=O)[C@H](CO)NC(=O)[C@H](CCC(=O)O)NC(=O)[C@H](CC(C)C)NC(=O)[C@H](Cc1ccc(O)cc1)NC(=O)[C@H](CCCCN)NC(=O)[C@H](CO)NC(=O)[C@H](Cc1ccc(O)cc1)NC(=O)[C@H](CC(=O)O)NC(=O)[C@H](CO)NC(=O)[C@@H](NC(=O)[C@H](Cc1ccccc1)NC(=O)[C@@H](NC(=O)CNC(=O)[C@H](Cc1c[nH]cn1)NC(=O)[C@H](CO)NC(=O)CCc1c[nH]cn1)[C@@H](C)O)[C@@H](C)O)C(C)C)[C@@H](C)O)C(=O)O)C(=O)O)C(=O)O)C(=O)O)C(=O)O [Example 16, N^α([Imp1, His3, Glu15, Glu21, Leu27, Ser28]-Glucagonyl)-N{Epsilon}[(4S)-4-[[(4S)-4-[[(4S)-4-[[(4S)-4-acetamido-4-carboxybutanoyl]amino]-4-carboxybutanoyl]amino]-4-carboxybutanoyl]amino]-4-carboxybutanoyl]Lys] (Desaminohistidyl-SHGTFTSDYSKYLESRRAQEFVQWLLSTK([γGlu-γGlu-γGlu-γGlu-Ac])-OH)	4	61
